Assay [1] deals with mA2a/CHO (Mus musculus (Mouse), UniProt Q60613). The assay can be described thus: cAMP inhibition assay in mA2a/CHO cells, 10 μM adenosine.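 Also: compounds preincubated 30 min at 37 °C before the adenosine challenge, then 30 min further stimulation, readout after 60 min detection reagent incubation at room temperature in 384-well plates.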 Format: cell-based.
Protocol: (§1) hA2a/CHO, hA2b/CHO, hA3/CHO and mA2a/CHO (Genscript) were plated at 5×10^3 cells/well into 384-well polystyrene plates at the day of experiment. Compounds were pre-incubated with cells for 30 min at 37° C., 5% CO2. Then 10 μM adenosine was added to the cells and incubated for 30 min at 37° C., 5% CO2. Detection reagent (CISBIO) was added and the plates were incubated for 60 min at room temperature. The signal was captured by Envision.
For assay [2], the target named is hA2a/CHO (Homo sapiens (Human), UniProt P29274). The assay can be described thus: cAMP inhibition assay in hA2a/CHO cells, 10 μM adenosine.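 Also: compounds added to cells 30 min ahead of adenosine, then a further 30 min at 37 °C with adenosine before cAMP detection.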 The assay is classed as cell-based.
Protocol: as §1
For assay [3], the target named is hA2b/CHO (Homo sapiens (Human), UniProt P29275). The assay can be described thus: cAMP inhibition assay in hA2b/CHO cells, 10 μM adenosine.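 Also: cells exposed to compound 30 min at 37 °C, then stimulated with adenosine a further 30 min, cAMP read after 60 min at room temperature.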 Format: cell-based.
Protocol: as §1
Assay [4] concerns the target hADORA1/CHO (hA1 expressing) cells (Homo sapiens (Human), UniProt P30542). The assay is described as follows: cell-based. As to conditions: 10 μM adenosine.
[5] abbreviates: read-out: cAMP & FLIPR IC50 (nM) mA2a.
Setting [6] is: read-out: cAMP & FLIPR IC50 (nM) hA2a.
The mark [7] stands for this setting: read-out: cAMP & FLIPR IC50 (nM) hA2b.
The mark [8] stands for this setting: FLIPR inhibition, read-out: cAMP & FLIPR IC50 (nM) hA1.

The values below come from patent US10898481B2 (priority 2018, dated 2021).

The structures appear in SMILES notation. Read-outs that look alike come from different tables or passages of the source.

As a reminder, the IC50 is the concentration needed to halve the response being measured.

Sequence of hADORA1/CHO (hA1 expressing) cells (P30542 whole entry): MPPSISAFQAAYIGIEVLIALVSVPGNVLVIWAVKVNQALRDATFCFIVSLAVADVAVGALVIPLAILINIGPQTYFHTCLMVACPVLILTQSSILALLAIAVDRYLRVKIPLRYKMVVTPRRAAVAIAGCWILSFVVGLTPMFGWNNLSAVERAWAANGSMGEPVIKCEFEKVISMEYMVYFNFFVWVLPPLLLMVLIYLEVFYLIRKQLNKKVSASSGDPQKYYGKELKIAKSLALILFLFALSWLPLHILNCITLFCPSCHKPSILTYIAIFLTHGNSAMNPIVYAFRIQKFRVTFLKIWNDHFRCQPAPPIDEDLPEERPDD
Sequence of mA2a/CHO (Q60613 whole entry): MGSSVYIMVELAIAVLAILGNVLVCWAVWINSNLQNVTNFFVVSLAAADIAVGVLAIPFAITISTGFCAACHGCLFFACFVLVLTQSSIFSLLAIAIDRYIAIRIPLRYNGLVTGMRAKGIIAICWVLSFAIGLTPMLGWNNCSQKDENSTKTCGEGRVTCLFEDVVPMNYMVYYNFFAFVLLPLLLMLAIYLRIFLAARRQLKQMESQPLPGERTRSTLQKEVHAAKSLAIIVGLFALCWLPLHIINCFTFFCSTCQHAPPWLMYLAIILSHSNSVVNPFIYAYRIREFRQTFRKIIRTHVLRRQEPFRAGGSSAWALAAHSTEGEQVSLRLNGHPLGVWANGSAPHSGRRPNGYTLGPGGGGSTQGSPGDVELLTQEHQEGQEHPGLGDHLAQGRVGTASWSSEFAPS
Sequence of hA2b/CHO (P29275 whole entry): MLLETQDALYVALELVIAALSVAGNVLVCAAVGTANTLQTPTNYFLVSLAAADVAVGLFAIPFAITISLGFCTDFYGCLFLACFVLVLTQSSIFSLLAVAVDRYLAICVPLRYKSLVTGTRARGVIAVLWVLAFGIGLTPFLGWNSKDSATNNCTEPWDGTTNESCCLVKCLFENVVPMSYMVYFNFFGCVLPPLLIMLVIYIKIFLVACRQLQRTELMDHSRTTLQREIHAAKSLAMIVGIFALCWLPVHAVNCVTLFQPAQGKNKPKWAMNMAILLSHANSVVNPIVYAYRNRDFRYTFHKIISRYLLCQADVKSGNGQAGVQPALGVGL
Sequence of hA2a/CHO (P29274 whole entry): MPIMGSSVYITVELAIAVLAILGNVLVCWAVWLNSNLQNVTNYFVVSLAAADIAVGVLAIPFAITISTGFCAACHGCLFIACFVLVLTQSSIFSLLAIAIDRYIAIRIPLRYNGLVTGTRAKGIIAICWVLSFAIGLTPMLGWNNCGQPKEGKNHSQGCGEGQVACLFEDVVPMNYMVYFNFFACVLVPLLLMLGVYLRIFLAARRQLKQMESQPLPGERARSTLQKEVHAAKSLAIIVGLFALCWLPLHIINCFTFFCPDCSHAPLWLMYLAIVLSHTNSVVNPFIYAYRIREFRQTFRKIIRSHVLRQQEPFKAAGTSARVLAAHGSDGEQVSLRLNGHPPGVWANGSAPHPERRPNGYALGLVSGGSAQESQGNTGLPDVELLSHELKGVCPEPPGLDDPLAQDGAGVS

`COc1ccccc1CNC(=O)c1nc(-c2cc(C)nc(C)c2)c(-n2cccn2)nc1N` [Example 56, 3-amino-6-(2,6-dimethylpyridin-4-yl)-N-(2-methoxybenzyl)-5-(1H-pyrazol-1-yl)pyrazine-2-carboxamide]: the IC50 in assay [1] (setting [5]) is 623 nM; in assay [2] (setting [6]), 28 nM; in assay [3] (setting [7]) it was at least 10000 nM; in assay [4] (setting [8]), 940 nM.

Regarding `Cc1cc(-c2nc(C(=O)NCc3ncccc3OC(F)F)c(N)nc2-c2ccc(F)cc2)cc(C)n1` [Example 57, 3-amino-N-((3-(difluoromethoxy)pyridin-2-yl)methyl)-6-(2,6-dimethylpyridin-4-yl)-5-(4-fluorophenyl)pyrazine-2-carboxamide], the IC50 in assay [1] (cAMP & FLIPR IC50 (nM) mA2a) was 278 nM; in assay [2] (cAMP & FLIPR IC50 (nM) hA2a), 41 nM; in assay [3] (cAMP & FLIPR IC50 (nM) hA2b), 1680 nM; in assay [4] (cAMP & FLIPR IC50 (nM) hA1, FLIPR inhibition) it was 142 nM.

For the molecule `Cc1cnc2ccc(-c3nc(C(=O)NCCC#N)c(N)nc3-c3ncco3)cn12` [Example 142, 3-amino-N-(2-cyanoethyl)-6-(3-methyl-imidazo[1,2-a]pyridin-6-yl)-5-(oxazol-2-yl)pyrazine-2-carboxamide], the IC50 was 73 nM in assay [1] (setting [5]), 10 nM in assay [2] (setting [6]), 319 nM in assay [3] (setting [7]) and 10000 nM in assay [4] (setting [8]).

Regarding `CO[C@H]1C[C@H](NC(=O)c2nc(-c3ccc4ncc(C)n4c3)c(-c3ncco3)nc2N)C1` [Example 151, 3-amino-N-((1r,3r)-3-methoxycyclobutyl)-6-(3-methylimidazo [1,2-a]pyridin-6-yl)-5-(oxazol-2-yl) pyrazine-2-carboxamide], the IC50 in assay [1] (setting [5]) turned out to be 12 nM; in assay [2] (setting [6]) it was 0.8 nM; in assay [3] (setting [7]) it was 193 nM; in assay [4] (setting [8]) it was 10000 nM.

In the case of `Cn1cc(-c2nc(C(=O)NCc3c(F)cccc3OC(F)F)c(N)nc2-c2ccc(F)cc2)ccc1=O` [Example 73, 3-amino-N-(2-(difluoromethoxy)-6-fluorobenzyl)-5-(4-fluorophenyl)-6-(1-methyl-6-oxo-1,6-dihydropyridin-3-yl) pyrazine-2-carboxamide], the IC50 stood at 4.2 nM in assay [1] (setting [5]), 0.4 nM in assay [2] (setting [6]), 8.1 nM in assay [3] (setting [7]) and 20 nM in assay [4] (setting [8]).

On to `Cc1cc(-c2nc(C(=O)NCc3ccccc3C(F)F)c(N)nc2-c2ccc(F)cc2)cc(C)n1` [Example 55, 3-amino-N-(2-(difluoromethyl)benzyl)-6-(2,6-dimethylpyridin-4-yl)-5-(4-fluorophenyl)pyrazine-2-carboxamide], for which the IC50 in assay [1] (setting [5]) is 1590 nM; in assay [2] (setting [6]), 133 nM; in assay [3] (setting [7]), 4440 nM; in assay [4] (setting [8]), 413 nM.

With `COc1ccccc1CNC(=O)c1nc(-c2cc(C)nc(N)c2)c(-c2ccc(F)cc2)nc1N` [Example 83, 3-amino-6-(2-amino-6-methylpyridin-4-yl)-5-(4-fluorophenyl)-N-(2-methoxybenzyl)pyrazine-2-carboxamide], the IC50 in assay [1] (setting [5]) was found to be 116 nM; in assay [2] (setting [6]), 2 nM; in assay [3] (setting [7]) it was 547 nM; in assay [4] (setting [8]), 132 nM.

In the case of `CNc1cccnc1CNC(=O)c1nc(-c2ccc(=O)n(C)c2)c(-c2ncco2)nc1N` [Example 46, 3-amino-6-(1-methyl-6-oxo-1,6-dihydropyridin-3-yl)-N-((3-(methylamino)pyridin-2-yl)methyl)-5-(oxazol-2-yl)pyrazine-2-carboxamide], the IC50 in assay [1] (setting [5]) was 125 nM; in assay [2] (setting [6]), 102 nM; in assay [3] (setting [7]), 1620 nM; in assay [4] (setting [8]) it was 488 nM.

With `CO[C@H]1C[C@@H](NC(=O)c2nc(-c3ccc4ncc(C)n4c3)c(-c3ncco3)nc2N)C1` [Example 152, 3-amino-N-((1s,3s)-3-methoxycyclobutyl)-6-(3-methylimidazo [1,2-a]pyridin-6-yl)-5-(oxazol-2-yl)pyrazine-2-carboxamide], the IC50 in assay [1] (setting [5]) was 43 nM; in assay [2] (setting [6]), 5.1 nM; in assay [3] (setting [7]), 369 nM; in assay [4] (setting [8]) it was 10000 nM.

In the case of `Cc1cnc2ccc(-c3nc(C(=O)NCCOC(F)(F)F)c(N)nc3-c3ncco3)cn12` [Example 148, 3-amino-6-(3-methylimidazo[1,2-a]pyridin-6-yl)-5-(oxazol-2-yl)-N-(2-(trifluoromethoxy)ethyl)pyrazine-2-carboxamide], the concentration for half-maximal inhibition (IC50) in assay [1] (setting [5]) is 1.1 nM; in assay [2] (setting [6]), 0.5 nM; in assay [3] (setting [7]), 99 nM; in assay [4] (setting [8]), 69 nM.

On to `Cc1cnc2ccc(-c3nc(C(=O)NCCN(C)c4ccccc4)c(N)nc3-c3ncco3)cn12` [Example 244, 3-amino-N-(2-(methyl(phenyl)amino)ethyl)-6-(3-methylimidazo[1,2-a]pyridin-6-yl)-5-(oxazol-2-yl)pyrazine-2-carboxamide], for which the IC50 amounted to 31 nM in assay [1] (setting [5]), 16 nM in assay [2] (setting [6]), 157 nM in assay [3] (setting [7]) and 260 nM in assay [4] (setting [8]).

With `Nc1nc(-c2ccc(F)cc2)c(-c2ccc(=O)n(C3CC3)c2)nc1C(=O)NCc1c(F)cccc1F` [Example 87, 3-amino-6-(1-cyclopropyl-6-oxo-1,6-dihydropyridin-3-yl)-N-(2,6-difluorobenzyl)-5-(4-fluorophenyl)pyrazine-2-carboxamide], the IC50 in assay [1] (setting [5]) is 22 nM; in assay [2] (setting [6]), 10 nM; in assay [3] (setting [7]), 153 nM; in assay [4] (setting [8]), 31 nM.

Take `Cc1cnc2ccc(-c3nc(C(=O)NCCC(=O)N(C)C)c(N)nc3-c3ncco3)cn12` [Example 143, 3-amino-N-(3-(dimethylamino)-3-oxopropyl)-6-(3-methylimidazo[1,2-a]pyridin-6-yl)-5-(oxazol-2-yl)pyrazine-2-carboxamide]: the IC50 came to 12 nM in assay [1] (setting [5]), 1.7 nM in assay [2] (setting [6]), 162 nM in assay [3] (setting [7]) and 180 nM in assay [4] (setting [8]).

Turning to `COCCn1cc(-c2nc(C(=O)NCc3c(F)cccc3F)c(N)nc2-c2ncco2)ccc1=O` [Example 103, 3-amino-N-[(2,6-difluorophenyl)methyl]-6-[1-(2-methoxyethyl)-6-oxo-1,6-dihydropyridin-3-yl]-5-(1,3-oxazol-2-yl)pyrazine-2-carboxamide], the 50% inhibitory concentration (IC50) in assay [1] (setting [5]) turned out to be 16 nM; in assay [2] (setting [6]) it was 38 nM; in assay [3] (setting [7]), 2130 nM; in assay [4] (setting [8]) it was 272 nM.

As to `CNCCOc1cccnc1CNC(=O)c1nc(-c2ccc3ncc(C)n3c2)c(-c2ccc(F)cc2)nc1N` [Cmpd. 199, 3-amino-5-(4-fluorophenyl)-N-([3-[2-(methylamino)ethoxy]pyridin-2-yl]methyl)-6-[3-methylimidazo[1,2-a]pyridin-6-yl]pyrazine-2-carboxamide], the IC50 was 1.6 nM in assay [1] (setting [5]), 0.7 nM in assay [2] (setting [6]), 102 nM in assay [3] (setting [7]) and 34 nM in assay [4] (setting [8]).

In the case of `Cc1cnc2ccc(-c3nc(C(=O)NCC4CCC(=O)N4C)c(N)nc3-c3ncco3)cn12` (racemic) [Example 212, rac-3-amino-N-((1-methyl-5-oxopyrrolidin-2-yl)methyl)-6-(3-methylimidazo [1,2-a]pyridin-6-yl)-5-(oxazol-2-yl) pyrazine-2-carboxamide], the concentration for half-maximal inhibition (IC50) in assay [1] (setting [5]) is 175 nM; in assay [2] (setting [6]) it was 34 nM; in assay [3] (setting [7]), 3430 nM; in assay [4] (setting [8]), over 10000 nM.
